Values of other authors, collected in patent US20220054371A1, “TOOTH CLEANING COMPOSITION, TOOTH CLEANING AGENT, DENTAL CALCULUS REMOVAL ACCELERATOR, AND TOOTH CLEANING METHOD” (TOKUYAMA DENTAL CORPORATION, priority 2018, published 2022).

Conditions: 2.0 mg dental calculi in 1 ml of 10% aqueous solution, pH 3.1, 14 minutes

CC(O)C(=O)O (stereo not shown) [lactic acid]
weight reduction of dental calculi: 1.0 mg
